Assay results from patent US20090149469A1, “Phenyl-[4-(3-phenyl-1h-pyrazol-4-yl)-pyrimidin-2-yl]-amine derivatives as igf-ir inhibitors” (priority 2004, published 2009).

Molecular target: T1, human IGF-IR (Homo sapiens, UniProt P08069)
T1 construct: complete human IGF-IR cDNA: GenBank Acc; No. NM_000875; expressed in transfected cells; host or cells: NIH-3T3 mouse fibroblasts
Assay: cellular Capture ELISA: IGF-I induced autophosphorylation of IGF-IR in NIH-3T3 cells transfected with human IGF-IR
Assay type: cell-based
Details: by the methods described above
Description: In this assay the activity of the compounds of the invention against Insulin-like growth factor I (IGF-1) induced autophosphorylation of the IGF-IR is determined. The assay is conducted as follows: For the assay NIH-3T3 mouse fibroblasts transfected with human IGF-IR cDNA (complete human IGF-IR cDNA: GenBank Acc. No. NM_000875), prepared as described in Kato et al., J. Biol. Chem. 268, 2655-61, 1993, are used. The cells which overexpress human IGF-IR are cultured in Dulbecco's minimal essential (DMEM) medium, containing 10% Fetal Calf Serum (FCS). For the assay 5,000 cells/well are plated on day 1 on 96-well plates (Costar #3595) in normal growth medium and incubated for 2 days at 37° C. in a standard CO2 cell incubator. […] On day 3 the medium is discarded and the cells are incubated for 24 h in minimal medium (DMEM, containing 0.5% FCS). […]
90 μl/well AP substrate (CDP-Star; obtained from Tropix; Cat. No.: MS100RY) are then added and the plates are incubated for 45 min at RT in the dark, followed by measuring AP activity in a Packard Top Count Microplate Scintillation Counter. The IC50 values for the compounds of formula I are calculated via linear regression analysis using the GraphPad Instat program (GraphPad Software, USA). […]

T1 sequence (P08069 31-1367): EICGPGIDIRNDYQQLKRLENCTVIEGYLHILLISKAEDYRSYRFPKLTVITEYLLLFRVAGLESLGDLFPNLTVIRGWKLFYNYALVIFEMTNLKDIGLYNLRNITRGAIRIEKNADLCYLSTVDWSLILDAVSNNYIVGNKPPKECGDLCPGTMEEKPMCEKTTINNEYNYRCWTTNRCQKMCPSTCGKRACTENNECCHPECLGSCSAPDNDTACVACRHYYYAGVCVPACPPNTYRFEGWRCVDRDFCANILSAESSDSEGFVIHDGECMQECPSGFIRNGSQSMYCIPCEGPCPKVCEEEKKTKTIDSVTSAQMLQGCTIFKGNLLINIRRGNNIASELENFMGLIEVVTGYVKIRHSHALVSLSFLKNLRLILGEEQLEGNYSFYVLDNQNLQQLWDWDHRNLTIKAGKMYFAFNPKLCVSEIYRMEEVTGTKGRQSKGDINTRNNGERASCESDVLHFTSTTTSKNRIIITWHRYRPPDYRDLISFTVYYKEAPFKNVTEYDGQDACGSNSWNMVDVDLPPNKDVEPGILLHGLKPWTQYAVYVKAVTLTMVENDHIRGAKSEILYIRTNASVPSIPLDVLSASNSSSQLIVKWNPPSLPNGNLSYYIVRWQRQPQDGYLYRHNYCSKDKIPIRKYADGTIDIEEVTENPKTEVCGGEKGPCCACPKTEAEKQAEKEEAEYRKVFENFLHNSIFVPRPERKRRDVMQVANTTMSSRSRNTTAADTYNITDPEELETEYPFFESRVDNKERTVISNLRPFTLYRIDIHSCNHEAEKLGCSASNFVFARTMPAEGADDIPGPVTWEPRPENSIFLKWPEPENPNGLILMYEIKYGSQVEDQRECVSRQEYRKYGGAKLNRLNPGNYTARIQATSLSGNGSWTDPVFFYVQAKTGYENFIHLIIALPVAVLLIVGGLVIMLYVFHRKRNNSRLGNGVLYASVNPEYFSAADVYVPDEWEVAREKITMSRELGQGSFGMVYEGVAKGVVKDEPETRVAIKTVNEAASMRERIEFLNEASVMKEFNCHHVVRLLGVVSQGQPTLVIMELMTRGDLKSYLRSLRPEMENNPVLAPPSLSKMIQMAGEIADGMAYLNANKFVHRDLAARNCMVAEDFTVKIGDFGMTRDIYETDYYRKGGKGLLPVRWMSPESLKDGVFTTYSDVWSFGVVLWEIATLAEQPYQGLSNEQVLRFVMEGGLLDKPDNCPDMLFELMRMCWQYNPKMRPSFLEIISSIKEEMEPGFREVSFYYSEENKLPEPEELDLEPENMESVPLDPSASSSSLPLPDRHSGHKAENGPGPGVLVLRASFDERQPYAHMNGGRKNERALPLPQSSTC

inhibition of IGF-1R (in words): shows inhibition
Compound: CN(C)CCOc1ccc(Nc2nccc(-c3c[nH]nc3-c3ccc(OCc4ccccc4)cc3)n2)cc1 [Example 6, {4-[3-(4-Benzyloxy-phenyl)-1H-pyrazol-4-yl]-pyrimidin-2-yl}-[4-(2-dimethylamino-ethoxy)-phenyl]-amine]
